The numbers were not newly measured in publication PMC5689474 (Amino acids, 2010), which cites them from elsewhere.

Series [1] concerns the target human δ-opioid receptor (Homo sapiens, UniProt P41143). The following applies: read-out: Binding Kiδ; [3H]DPDPE; ±SEM; ref Lipkowski et al. (1999).
Series [2] has as its system δ- and μ-opioid receptors. The note with it: words; ref Lipkowski et al. 1987; Horan et al. 1993.
The conditions of series [3]: ref Horan et al. 1993; Yamazaki et al. 2001.
In series [4] the target is Mouse vas deferens (δ-opioid receptors). The note with it: read-out: Functional bioactivity MVD (IC50); ±SEM; ref Lipkowski et al. (1999).
For series [5] the following is noted: after i.c.v. and i.t. administration; ref Lipkowski et al. 1987; Horan et al. 1993.
The target of series [6] is rat μ-opioid receptor (Rattus norvegicus, UniProt P33535). The following applies: read-out: Binding Kiμ; [3H]DAMGO; ±SEM; ref Lipkowski et al. (1999).
Chain of rat μ-opioid receptor (P33535 whole entry): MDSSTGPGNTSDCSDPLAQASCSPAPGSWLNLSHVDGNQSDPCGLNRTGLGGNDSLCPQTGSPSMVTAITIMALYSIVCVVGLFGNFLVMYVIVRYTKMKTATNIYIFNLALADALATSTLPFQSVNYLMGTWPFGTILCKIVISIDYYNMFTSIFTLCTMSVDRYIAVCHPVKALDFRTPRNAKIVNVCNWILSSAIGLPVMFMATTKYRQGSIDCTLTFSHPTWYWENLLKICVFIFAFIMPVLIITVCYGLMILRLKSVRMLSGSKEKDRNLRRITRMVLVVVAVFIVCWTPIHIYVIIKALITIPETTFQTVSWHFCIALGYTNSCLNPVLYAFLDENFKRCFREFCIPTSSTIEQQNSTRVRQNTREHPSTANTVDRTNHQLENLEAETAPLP

Chain of human δ-opioid receptor (P41143 whole entry): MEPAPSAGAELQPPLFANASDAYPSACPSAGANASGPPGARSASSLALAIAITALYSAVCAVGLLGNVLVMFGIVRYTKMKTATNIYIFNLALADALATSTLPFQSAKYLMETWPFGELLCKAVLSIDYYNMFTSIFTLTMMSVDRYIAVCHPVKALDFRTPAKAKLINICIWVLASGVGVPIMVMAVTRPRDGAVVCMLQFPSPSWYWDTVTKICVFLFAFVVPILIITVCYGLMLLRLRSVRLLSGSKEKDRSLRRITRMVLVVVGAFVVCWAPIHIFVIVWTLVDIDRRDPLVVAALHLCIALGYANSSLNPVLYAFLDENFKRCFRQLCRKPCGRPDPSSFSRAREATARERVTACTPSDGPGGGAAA

Consider “Tyr-D-Ala-Gly-Phe-NH-NH\-Phe\-Gly\-D-Ala\-Tyr [Bph]”, for which the Ki in series [1] was 2.6 ± 0.4 nM; in series [6] it was 1.4 ± 0.2 nM. The “affinity for both δ- and μ-receptors” value in series [2] was “highly affinity for both δ- and μ-receptors”. In addition, in series [3], the “physical dependence compared with morphine” value was “less physical dependence than morphine”. The IC50 in series [4] was 27 ± 1.5 nM. The “potency compared with morphine” value in series [5] is listed as “significantly higher than morphine”.

Usually IC50 stands for the concentration that gives 50% inhibition.
